Results as given in ChEMBL document CHEMBL4308902, “Synthetic approaches to isocarbacyclin and analogues as potential neuroprotective agents against ischemic stroke” (Bioorg Med Chem, 2019).
Activity calls are given as the source filed them. The rule behind the calls is not given here.

Columns and labels:
Cortical neurone [1] = experiment: Neuroprotection in mouse embryonic cortical neurons assessed as reduction in glucose deprivation-induced cell death; format: functional, cell-based
Cortical neurone [2] = experiment: Cytotoxicity against mouse embryonic cortical neurons assessed as reduction in cell viability; format: cell-based
Cortical neurone [3] = experiment: Neuroprotection in mouse embryonic cortical neurons assessed as reduction in oxygen and glucose deprivation-induced cell death; format: functional, cell-based

For `CCCCCCCCCC/C=C/[C@@H]1[C@H]2CC(CCCCC(=O)O)=C[C@H]2C[C@H]1O`, the Activity (Cortical neurone [1]) was “inactive”, the Activity (Cortical neurone [2]) was “Toxic” and the Activity (Cortical neurone [3]) was “inactive”.

`CCCCCC/C=C/[C@@H]1[C@H]2CC(CCCCC(=O)O)=C[C@H]2C[C@H]1O` was tested, and the Activity (Cortical neurone [1]) was “inactive”, the Activity (Cortical neurone [2]) was “Toxic” and the Activity (Cortical neurone [3]) was “inactive”.

In the case of `CCCCC[C@H](O)/C=C/[C@@H]1[C@H]2CC(CCCCC(=O)O)=C[C@H]2C[C@H]1O`, the Activity (Cortical neurone [1]) is reported as “inactive”, the Activity (Cortical neurone [2]) is reported as “Toxic” and the Activity (Cortical neurone [3]) is reported as “inactive”.

With `C=C[C@@H]1[C@H]2CC(CCCCC(=O)O)=C[C@H]2C[C@H]1O` the Activity (Cortical neurone [1]) was “inactive”, the Activity (Cortical neurone [2]) was “Toxic” and the Activity (Cortical neurone [3]) was “inactive”.

`O=C(O)CCCCC1=C[C@H]2C[C@@H](O)[C@H](/C=C/Cc3ccccc3)[C@H]2C1` was tested, and the Activity (Cortical neurone [1]) was “inactive”, the Activity (Cortical neurone [2]) was “Toxic” and the Activity (Cortical neurone [3]) was “inactive”.
